As a reminder, the inhibition is the drop in the measured response relative to a control, in per cent.

The structures appear in SMILES notation.

Results on 16 compounds are retold here after patent US12600705B2, “Heat shock protein modulators and anti-Huntington disease therapeutic agents” (UNIVERSITY OF PITTSBURGH-OF THE COMMONWEALTH SYSTEM OF …, priority 2020, dated 2026).

For test [1], the system named is HEK293 cells that express an HTT exon containing 17 glutamine repeats (HTT17Q-mCherry). The test is described as follows: Huntington's Disease (HD) model: protein aggregates (puncta) per cell in HEK293H cells transfected with HTT17Q-mCherry. The following applies: 6 h; for Effectiveness compared to MAL1-271 (Less/Similar/More) / Effectiveness compared to the MAL1-271 positive control: 10 μM; for Effectiveness compared to MAL1-271 (Less/Similar/More): blunting formation of toxic aggregates; for Effect on aggregate suppression compared to the MAL1-271 positive control: Example 1, FIG. 2, 10 μM compound; for Effectiveness compared to the MAL1-271 positive control: Example 2.
Description: Cells were stained for confocal microscope imaging with 4′,6-diamidino-2-phenylindole (DAPI), a fluorescent dye with high affinity to adenine-thymine rich DNA regions. A bright spot detection tool was used to identify and quantify the number of protein aggregates (“dots”) per cell.
Biological Assays: For HD assays, HEK293H cells were grown in DMEM (Sigma-Aldrich, Saint Louis, MO) supplemented with 10% fetal bovine serum (GE Healthcare Hyclone) and 1% penicillin/streptomycin (Thermo Fisher Scientific, Waltham, MA) at 37° C. and at a 5% CO2 atmosphere. Cells were seeded at 250,000 cells/plate in Poly-D-Lysine Coated 35 mm MatTek dishes (P35GC-1.5-10-C, MatTek Corporation, Ashland, MA). After 24 h growth, a total of 4 μg of mCherry tagged-polyglutamine-expanded (17-polyQ-expanded) huntingtin (HTT) was introduced using Lipofectamine 2000 (Invitrogen, Thermo Fisher Scientific) according to the manufacturer's instructions. […] The following day, cells were treated with vehicle (DMSO) as control or with 10 μM of the examined compounds for 6 h. The cells were then washed with PBS and fixed in 4% formaldehyde for 15 min at room temperature. Finally, cells were stained with DAPI (1:250 in PBS) for 4 h and maintained in PBS for confocal microscope imaging.
Complete volumes of cells were acquired at 0.5-μm steps, and volumes were reconstructed and analyzed using Nikon's NIS-Elements software (Nikon Instrument, Melville, NY). Bright spot detection tool was used to identify and quantify the number of protein aggregates (“dots”) per cell. A non-parametric Kruskal-Wallis test analysis was performed using Prism software (GraphPad, La Jolla, CA). Statistically significant differences between control (DMSO) and compound treated samples are indicated by asterisks in figure. To obtain representative images from this experiment, maximum intensity projections of 0.5-μm steps though the entire cell were generated using Nikon's NIS-Elements software.
Cells were stained for confocal microscope imaging with 4′,6-diamidino-2-phenylindole (DAPI) and bright spot detection tool was used to identify and quantify the number of protein aggregates (“dots”) per cell.

A further test concerns HDAC 1-3. The experiment in a line: HDAC 1-3 assay (BioVision kit, HeLa nuclear extract). The note with it: for Percent inhibition HDAC 1-3: Compound tested at 1 uM.
For another test, the target named is T1, HDAC 8 (Homo sapiens, UniProt Q9BY41).
T1 sequence (Q9BY41 1-377): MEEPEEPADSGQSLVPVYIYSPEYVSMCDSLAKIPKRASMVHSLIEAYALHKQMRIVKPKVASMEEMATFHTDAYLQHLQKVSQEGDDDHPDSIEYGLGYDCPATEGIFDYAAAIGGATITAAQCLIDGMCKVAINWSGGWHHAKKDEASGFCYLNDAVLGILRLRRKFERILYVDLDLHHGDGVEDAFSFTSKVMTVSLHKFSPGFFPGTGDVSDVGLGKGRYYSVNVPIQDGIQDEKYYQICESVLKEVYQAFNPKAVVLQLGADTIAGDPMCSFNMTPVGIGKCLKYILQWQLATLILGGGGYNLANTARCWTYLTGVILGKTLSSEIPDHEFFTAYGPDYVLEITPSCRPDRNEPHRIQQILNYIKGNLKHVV
The experiment in a line: HDAC 8 assay (BPS Bioscience kit). The note with it: read-out: Percent Inhibition.

In a further test the target is T2, HDAC 6 (Homo sapiens, UniProt Q9UBN7).
T2 sequence (Q9UBN7 1-1215): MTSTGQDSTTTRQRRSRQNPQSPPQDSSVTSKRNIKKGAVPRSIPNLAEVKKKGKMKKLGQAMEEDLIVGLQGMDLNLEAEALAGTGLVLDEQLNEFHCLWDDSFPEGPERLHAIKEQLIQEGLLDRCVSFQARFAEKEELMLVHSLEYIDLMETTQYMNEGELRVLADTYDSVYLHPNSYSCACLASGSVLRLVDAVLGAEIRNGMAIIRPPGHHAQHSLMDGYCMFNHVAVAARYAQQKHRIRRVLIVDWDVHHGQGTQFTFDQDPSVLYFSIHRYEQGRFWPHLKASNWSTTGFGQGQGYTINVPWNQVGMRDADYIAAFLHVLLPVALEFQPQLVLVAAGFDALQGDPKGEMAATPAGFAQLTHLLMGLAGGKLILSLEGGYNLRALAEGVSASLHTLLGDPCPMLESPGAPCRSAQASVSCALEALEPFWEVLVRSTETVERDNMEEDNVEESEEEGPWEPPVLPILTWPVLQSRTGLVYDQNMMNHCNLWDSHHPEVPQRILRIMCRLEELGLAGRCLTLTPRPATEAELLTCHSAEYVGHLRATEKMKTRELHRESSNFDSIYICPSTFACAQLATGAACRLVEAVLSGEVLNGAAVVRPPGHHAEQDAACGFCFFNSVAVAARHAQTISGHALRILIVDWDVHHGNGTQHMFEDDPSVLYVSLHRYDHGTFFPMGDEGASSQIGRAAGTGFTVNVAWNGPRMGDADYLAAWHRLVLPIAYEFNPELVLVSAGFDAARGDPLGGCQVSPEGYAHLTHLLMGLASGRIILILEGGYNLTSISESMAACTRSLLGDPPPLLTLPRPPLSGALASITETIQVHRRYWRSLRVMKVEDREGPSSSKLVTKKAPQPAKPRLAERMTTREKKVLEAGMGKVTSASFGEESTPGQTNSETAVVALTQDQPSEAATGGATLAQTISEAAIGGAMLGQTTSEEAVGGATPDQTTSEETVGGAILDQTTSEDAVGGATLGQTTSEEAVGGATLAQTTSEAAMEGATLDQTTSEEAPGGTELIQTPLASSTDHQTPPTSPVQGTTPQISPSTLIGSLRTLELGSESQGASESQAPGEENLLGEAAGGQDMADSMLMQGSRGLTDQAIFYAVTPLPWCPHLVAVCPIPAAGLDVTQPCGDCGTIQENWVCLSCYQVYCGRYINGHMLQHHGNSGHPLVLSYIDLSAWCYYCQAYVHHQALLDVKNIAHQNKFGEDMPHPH
The test is described as follows: HDAC 6 assay (BPS Bioscience kit). The following applies: read-out: Percent Inhibition.

Description for HDAC 1-3: For HDAC 1-3 assays, kits from BioVision Incorporated (https://www.biovision.com/) were used and their recommended protocols followed. […] Each compound was dissolved in DMSO to generate a 100 μM stock solution, then diluted using HPLC-grade water to prepare 10 μM, 2 μM, and 1 μM solutions. These solutions were used for the assays. […] Assays utilized a BioTek Synergy H1 microplate reader and black Nunc MicroWell 96-well optical-bottom plates with polymer base.
HDAC 1-3: 10 μL of each diluted compound (10 μM) and 40 μL of HPLC-grade water were mixed and added into a well on the plate. […] Then, 50 μL of the reaction mixture was added to each well and the solution was mixed thoroughly. The reaction mixture consisted of 500 μL of 10×HDAC Assay buffer, 100 μL of HeLa nuclear extract, 250 μL of HDAC substrate, and 1.65 mL of HPLC-grade water. The plate was then warmed in an incubator at 37° C. with a rocker platform and was incubated for 30 min. After the incubation, 10 μL of Lysine Developer solution was added to each well. The plate was kept in the incubator for an additional 30 min. Afterwards, the plate was analyzed using a BioTek Synergy H1 microplate reader, taking two independent readings per well that were subsequently averaged.
Description for HDAC 6: (§1) For HDAC 4-8 assays, kits from BPS Bioscience (https://bpsbioscience.com/) were used and their recommended protocols followed. […] Each compound was dissolved in DMSO to generate a 100 μM stock solution, then diluted using HPLC-grade water to prepare 10 μM, 2 μM, and 1 μM solutions. These solutions were used for the assays. […] Assays utilized a BioTek Synergy H1 microplate reader and black Nunc MicroWell 96-well optical-bottom plates with polymer base.
(§2) HDAC 4 (and, by analogy, HDAC 5, 6, 7, and 8): 40 μL of the parent solution was added to each well on the plate. The parent solution was prepared from a fluorogenic HDAC substrate, a 1 mg/mL solution of bovine serum albumin (BSA) in water, and HDAC assay buffer. 5 μL of the inhibitor buffer (10% DMSO in water) was added to the wells designated as “Blank” and “Positive Control” (no inhibitor). 5 μL of the test compound was added to each well designated as “Test Inhibitor”. Different concentrations of TSA (for a standard curve) was added to each well designated as “Standard.” 5 μL of HDAC assay buffer was added to the “Blank” wells. Then, 5 μL of HDAC 4 human recombinant enzyme was added to the wells designated as “Positive Control”, “Test Inhibitor”, and “Standard.” The plate was then warmed in an incubator at 37° C. with a rocker platform for 30 min After the incubation, 50 μL of 2×HDAC Developer solution was added to each well. The plate was returned to the incubator and was shaken on the rocker for an additional 15 min. at room temperature. Afterwards, the plate was analyzed using a BioTek Synergy H1 microplate reader, taking two independent readings per well that were subsequently averaged.
Description for HDAC 8: as §1, §2

`CCOC(=O)C1=CN(Cc2ccc(C(=O)NO)cc2)S(=O)(=O)N(C)C1c1ccc(Cl)cc1Cl` (single isomer, unassigned; (+)) [(+)-951_66, (+)-Ethyl 3-(2,4-dichlorophenyl)-6-(4-(hydroxycarbamoyl)benzyl)-2-methyl-3,6-dihydro-2H-1,2,6-thiadiazine-4-carboxylate 1,1-dioxide]: in test [1], the “Effectiveness compared to MAL1-271 (Less/Similar/More)” value is on record as “Less”.

Turning to `CCOC(=O)C1=CN(Cc2ccc(C(=O)NO)cc2)S(=O)(=O)N(C)C1c1ccc(Cl)cc1Cl` (single isomer, unassigned; (-)) [(−)-951_67, (−)-Ethyl 3-(2,4-dichlorophenyl)-6-(4-(hydroxycarbamoyl)benzyl)-2-methyl-3,6-dihydro-2H-1,2,6-thiadiazine-4-carboxylate 1,1-dioxide], in test [1], the “Effectiveness compared to MAL1-271 (Less/Similar/More)” value is reported as “Similar”.

With `CCOC(=O)C1=CN(CCCC(=O)OC)S(=O)(=O)NC1c1ccc(Cl)cc1Cl` (stereo not drawn) [Compound 5g, Ethyl 3-(2,4-dichlorophenyl)-6-(4-methoxy-4-oxobutyl)-3,6-dihydro-2H-1,2,6-thiadiazine-4-carboxylate 1,1-dioxide], the “Effect on aggregate suppression compared to the MAL1-271 positive control” value in test [1] is given as “less effective”.

Regarding `CCOC(=O)C1=CN(Cc2ccc(CO)cc2)S(=O)(=O)NC1c1ccc(Cl)cc1Cl` (stereo not drawn) [Compound 5h, Ethyl 3-(2,4-dichlorophenyl)-6-(4-(hydroxymethyl)benzyl)-3,6-dihydro-2H-1,2,6-thiadiazine-4-carboxylate 1,1-dioxide], the “Effect on aggregate suppression compared to the MAL1-271 positive control” value in test [1] is “less effective”.

`CCOC(=O)C1=CN(C(=O)OC(C)(C)C)S(=O)(=O)N(Cc2ccc(C(=O)OC(C)(C)C)cc2)C1c1ccc(Cl)cc1Cl` (stereo not drawn) [Compound 6i, 2-(tert-Butyl) 4-ethyl 6-(4-(tert-butoxycarbonyl)benzyl)-5-(2,4-dichlorophenyl)-5,6-dihydro-2H-1,2,6-thiadiazine-2,4-dicarboxylate 1,1-dioxide]: the “Effect on aggregate suppression compared to the MAL1-271 positive control” value in test [1] is “less effective”.

For the compound `CCOC(=O)C1=CN(Cc2ccc(C(=O)O)cc2)S(=O)(=O)NC1c1ccc(Cl)cc1Cl` (stereo not drawn) [Compound 7h, 4-((5-(2,4-Dichlorophenyl)-4-(ethoxycarbonyl)-1,1-dioxido-5,6-dihydro-2H-1,2,6-thiadiazin-2-yl)methyl)benzoic acid], the “Effect on aggregate suppression compared to the MAL1-271 positive control” value in test [1] is “less effective”.

On to `O=C(O)CCCN1C=C(C(=O)O)C(c2ccc(Cl)cc2Cl)NS1(=O)=O` (stereo not drawn) [Compound 9g, 6-(3-Carboxypropyl)-3-(2,4-dichlorophenyl)-3,6-dihydro-2H-1,2,6-thiadiazine-4-carboxylic acid 1,1-dioxide], for which the “Effect on aggregate suppression compared to the MAL1-271 positive control” value in test [1] is “less effective”.

Consider `CCOC(=O)C1=CN(CCCC(=O)NO)S(=O)(=O)NC1c1ccc(Cl)cc1Cl` (stereo not drawn) [Compound 12g, Ethyl 3-(2,4-dichlorophenyl)-6-(4-(hydroxyamino)-4-oxobutyl)-3,6-dihydro-2H-1,2,6-thiadiazine-4-carboxylate 1,1-dioxide], for which, in the test with HDAC 1-3, the “Percent inhibition HDAC 1-3” value amounted to 1%.

As to `CCOC(=O)C1=CN(Cc2ccc(C(=O)NO)cc2)S(=O)(=O)NC1c1ccc(Cl)cc1Cl` (stereo not drawn) [Compound 12h, Ethyl 3-(2,4-dichlorophenyl)-6-(4-(hydroxycarbamoyl)benzyl)-3,6-dihydro-2H-1,2,6-thiadiazine-4-carboxylate 1,1-dioxide], the “Percent inhibition HDAC 1-3” value with HDAC 1-3 is reported as 22%.

Regarding `COC(=O)CCCN1C=C(C(=O)OCc2ccccc2)C(c2ccc(Cl)cc2Cl)NS1(=O)=O` (stereo not drawn) [Compound 18g, Benzyl 3-(2,4-dichlorophenyl)-6-(4-methoxy-4-oxobutyl)-3,6-dihydro-2H-1,2,6-thiadiazine-4-carboxylate 1,1-dioxide], the “Effect on aggregate suppression compared to the MAL1-271 positive control” value in test [1] is “less effective”.

As to `CCOC(=O)C1=CN(Cc2ccc(C(=O)NO)cc2)S(=O)(=O)N(C)C1c1ccc(Cl)cc1Cl` (stereo not drawn) [Compound 930_62, Ethyl 3-(2,4-dichlorophenyl)-6-(4-(hydroxycarbamoyl)benzyl)-2-methyl-3,6-dihydro-2H-1,2,6-thiadiazine-4-carboxylate 1,1-dioxide], in test [1], the “Effectiveness compared to MAL1-271 (Less/Similar/More)” value was “More” and the “Effectiveness compared to the MAL1-271 positive control” value is on record as “more effective”.

As for `CCOC(=O)C1=CN(Cc2ccc(C(=O)NO)cc2)S(=O)(=O)N(CC2CC2)C1c1ccc(Cl)cc1Cl` (stereo not drawn) [Compound 930_63, Ethyl 2-(cyclopropylmethyl)-3-(2,4-dichlorophenyl)-6-(4-(hydroxycarbamoyl)benzyl)-3,6-dihydro-2H-1,2,6-thiadiazine-4-carboxylate 1,1-dioxide], in test [1], the “Effectiveness compared to MAL1-271 (Less/Similar/More)” value is listed as “More” and the “Effectiveness compared to the MAL1-271 positive control” value is recorded as “more effective”.

For the compound `O=C(O)CCCN1C=C(C(=O)OCc2ccc(Cl)cc2Cl)C(c2ccc(Cl)cc2Cl)NS1(=O)=O` (stereo not drawn) [Compound 959_30], in test [1], the “Effectiveness compared to MAL1-271 (Less/Similar/More)” value is “Similar”.

Consider `O=C(CCCN1C=C(C(=O)OCc2ccccc2)C(c2ccc(Cl)cc2Cl)NS1(=O)=O)OCCN1CCOCC1` (stereo not drawn) [Compound 959_74, Benzyl 3-(2,4-dichlorophenyl)-6-(4-(2-morpholinoethoxy)-4-oxobutyl)-3,6-dihydro-2H-1,2,6-thiadiazine-4-carboxylate 1,1-dioxide], for which the “Effectiveness compared to MAL1-271 (Less/Similar/More)” value in test [1] is listed as “Similar”.

Turning to `O=C(CCCCCCC(=O)Nc1ccccc1)NO` [SAHA, Vorinostat], on HDAC 8, the inhibition at 0.05 µM stood at 54%, the inhibition at 0.2 µM amounted to 67%, the inhibition at 1 µM amounted to 70% and the inhibition at 2 µM was 86%. The inhibition at 5 µM on HDAC 8 is 96%. Also, at HDAC 6, the inhibition at 0.001 µM is 6%, the inhibition at 0.005 µM is 25%, the inhibition at 0.01 µM turned out to be 47% and the inhibition at 0.5 µM turned out to be 94%.

For `CC(/C=C/C(=O)NO)=C\[C@@H](C)C(=O)c1ccc(N(C)C)cc1` [TSA, Trichostatin A], the “Percent Inhibition” value is “NIA” in the test on HDAC 1-3 (HDAC 1-3, standard at 0.0025 uM); “NIA” in the test on HDAC 1-3 (HDAC 1-3, standard at 0.005 uM); 33% with HDAC 1-3 (HDAC 1-3, standard at 0.05 uM); 49% in the test with HDAC 1-3 (HDAC 1-3, standard at 0.1 uM); 68% in the test with HDAC 1-3 (HDAC 1-3, standard at 1 uM).
